We go through six compounds from ChEMBL document CHEMBL3779788, “Facile synthesis of 1,3-thiazolidin-4-ones as antitubercular agents” (Bioorg Med Chem Lett, 2016).

Values after ≈ are worked out from the molar mass of the structure shown.

The nature of data set [1]: (§1) Antitubercular activity against dormant Mycobacterium bovis BCG ATCC 35743 by NR assay. It counts as functional, Mycobacterium bovis BCG str. ATCC 35743.
In data set [2] the test system is Mycobacterium bovis BCG str. ATCC 35743. The description is as §1. It counts as functional.
Data set [3] deals with Mycobacterium tuberculosis. The data set can be described thus: Antitubercular activity against dormant Mycobacterium tuberculosis H37Ra by XTT reduction menadione assay. In kind it is functional, organism-based.
Data set [4] has as its system Mycobacterium bovis BCG str. ATCC 35743. The data set can be described thus: Antitubercular activity against dormant Mycobacterium bovis BCG ATCC 35743 assessed as growth inhibition at 3 ug/mL by NR assay. It counts as functional.
Data set [5] has the same test system. Briefly: Antitubercular activity against dormant Mycobacterium bovis BCG ATCC 35743 assessed as growth inhibition at 10 ug/mL by NR assay. It counts as functional.
The subject of data set [6] is Mycobacterium tuberculosis. The data set can be described thus: Antitubercular activity against dormant Mycobacterium tuberculosis H37Ra assessed as growth inhibition at 30 ug/mL by XTT reduction menadione assay. It counts as functional. As to conditions: read-out: GI.
Data set [7] concerns Mycobacterium tuberculosis. Briefly: Antitubercular activity against dormant Mycobacterium tuberculosis H37Ra assessed as growth inhibition at 10 ug/mL by XTT reduction menadione assay. In kind it is functional. The settings on record: read-out: GI.
Data set [8] relates to Mycobacterium tuberculosis. Briefly: Antitubercular activity against dormant Mycobacterium tuberculosis H37Ra assessed as growth inhibition at 3 ug/mL by XTT reduction menadione assay. The settings on record: read-out: GI. It counts as functional.
The subject of data set [9] is Mycobacterium bovis BCG str. ATCC 35743. Briefly: Antitubercular activity against dormant Mycobacterium bovis BCG ATCC 35743 assessed as growth inhibition at 30 ug/mL by NR assay. In kind it is functional.
The nature of data set [10]: Cytotoxicity against human MCF7 cells at 30 ug/mL by MTT assay. It counts as cell-based. The settings on record: read-out: INH.
The nature of data set [11]: Cytotoxicity against human MCF7 cells at 10 ug/mL by MTT assay. It counts as cell-based. As to conditions: read-out: INH.
Data set [12] is described as follows: Cytotoxicity against human MCF7 cells at 3 ug/mL by MTT assay. It counts as cell-based. As to conditions: read-out: INH.
Data set [13] in a line: Cytotoxicity against human A549 cells at 30 ug/mL by MTT assay. In kind it is cell-based. As to conditions: read-out: INH.
Data set [14] in a line: Cytotoxicity against human A549 cells at 10 ug/mL by MTT assay. It counts as cell-based. As to conditions: read-out: INH.
The nature of data set [15]: Cytotoxicity against human A549 cells at 3 ug/mL by MTT assay. In kind it is cell-based. As to conditions: read-out: INH.
Data set [16] in a line: Cytotoxicity against human HCT116 cells at 30 ug/mL by MTT assay. In kind it is cell-based, HCT-116. As to conditions: read-out: INH.
A short description of data set [17]: Cytotoxicity against human HCT116 cells at 10 ug/mL by MTT assay. It counts as cell-based, HCT-116. The settings on record: read-out: INH.
Data set [18] is described as follows: Cytotoxicity against human HCT116 cells at 3 ug/mL by MTT assay. As to conditions: read-out: INH. In kind it is cell-based, HCT-116.
Data set [19] concerns Escherichia coli. Briefly: Antibacterial activity against Escherichia coli after 18 hrs by broth dilution method. In kind it is functional, organism-based.
The subject of data set [20] is Pseudomonas. Briefly: Antibacterial activity against Pseudomonas after 18 hrs by broth dilution method. In kind it is functional, organism-based.
Data set [21] relates to Staphylococcus aureus. Briefly: Antibacterial activity against Staphylococcus aureus after 18 hrs by broth dilution method. In kind it is functional, organism-based.
Data set [22] has as its system Bacillus subtilis. Briefly: Antibacterial activity against Bacillus subtilis after 18 hrs by broth dilution method. It counts as functional, organism-based.

In [1], `NNC(=O)c1ccncc1` [ISONIAZID] registered an IC50 of 0.0023 µg/mL (≈ 0.0168 µM). For the same compound, the IC90 turned out to be 0.045 µg/mL (≈ 0.328 µM) in data set [2] and 0.075 µg/mL (≈ 0.547 µM) in data set [3].

For `Cc1ccc(N2C(=O)CSC2c2ccccc2)cc1` (stereo unspecified), the growth inhibition (GI) came to 61.6% in [4], 4.5% in data set [5] and 39.7% in data set [9]. For the same compound, the inhibition of growth at 30 µg/mL in data set [6] is -0.7%. Besides, the inhibition of growth at 10 µg/mL in data set [7] is -24.3%. Further, the inhibition of growth at 3 µg/mL in [8] is -21.6%. For the same compound, the IC50 in data set [1] and in data set [3] was greater than 30 µg/mL throughout. In addition, the IC90 in data set [2] and in [3] was greater than 30 µg/mL each time. Moreover, the cytotoxicity at 30 ug/mL in [10] is 29.2%; in [13], -15.9%; in data set [16], 21.6%. Further, the cytotoxicity at 10 ug/mL in [11] was 8.4%; in data set [14] it was 0%; in data set [17], 20.5%. In addition, the values for the cytotoxicity at 3 ug/mL in data set [12], in data set [15] and in [18] were -40.6%, 0% and 16.1%, respectively.

Turning to `O=C1CSC(c2ccc(O)cc2)N1c1ccc(Cl)cc1` (stereo unspecified), the growth inhibition (GI) in [4] is 6%; in [5], -15.5%; in data set [9], -2.2%. Moreover, the inhibition of growth at 30 µg/mL in data set [6] is 16.3%. The inhibition of growth at 10 µg/mL in data set [7] was 10.3%. Moreover, in data set [8], the inhibition of growth at 3 µg/mL is 29.8%. The 50% inhibitory concentration (IC50) in data set [1] and in data set [3] was greater than 30 µg/mL throughout. In addition, the IC90 in data set [2] and in data set [3] was greater than 30 µg/mL each time. The values for the cytotoxicity at 30 ug/mL in [10], in [13] and in data set [16] were 43.4%, 0% and 20.1%, respectively. In addition, the cytotoxicity at 10 ug/mL is 32.2% in data set [11], 0% in data set [14] and 10.4% in data set [17]. The values for the cytotoxicity at 3 ug/mL in data set [12], in data set [15] and in [18] were 24.9%, 0% and 4.3%, respectively.

As for `NC[C@H]1O[C@H](O[C@H]2[C@H](O)[C@@H](O[C@H]3O[C@H](CO)[C@@H](O)[C@H](N)[C@H]3O)[C@H](N)C[C@@H]2N)[C@H](O)[C@@H](O)[C@@H]1O` [KANAMYCIN], the IC50 is 1.62 µg/mL (≈ 3.34 µM) in data set [19], 0.49 µg/mL (≈ 1.01 µM) in [20], greater than 30 µg/mL in data set [21] and 1.35 µg/mL (≈ 2.79 µM) in [22]. Moreover, the minimum inhibitory concentration (MIC) in data set [19] is 0.67 µg/mL (≈ 1.38 µM); in data set [20], 0.012 µg/mL (≈ 0.0248 µM); in data set [21], 16 µg/mL (≈ 33 µM); in [22], 0.25 µg/mL (≈ 0.516 µM).

For the compound `Cc1ccc(N2C(=O)CSC2c2ccc(Cl)cc2)cc1` (stereo unspecified), the growth inhibition (GI) in [4] is -6.6%; in [5], 29.2%; in data set [9], 5.3%. The inhibition of growth at 30 µg/mL in data set [6] stood at 5.2%. In addition, the inhibition of growth at 10 µg/mL in data set [7] was 38.1%. In addition, the inhibition of growth at 3 µg/mL in data set [8] stood at 34%. The IC50 in data set [1] and in data set [3] was greater than 30 µg/mL in each case. Further, the IC90 in data set [2] and in data set [3] was greater than 30 µg/mL each time. Besides, the results for the cytotoxicity at 30 ug/mL in [10], in [13] and in data set [16] were 11.3%, 0% and 28.8%, respectively. For the same compound, the values for the cytotoxicity at 10 ug/mL in data set [11], in [14] and in [17] were 9.6%, 0% and 7.2%, respectively. In addition, the figures for the cytotoxicity at 3 ug/mL in data set [12], in [15] and in [18] were -0.9%, 1.3% and -8.6%, respectively.

Turning to `CC1(C)S[C@@H]2[C@H](NC(=O)[C@H](N)c3ccccc3)C(=O)N2[C@H]1C(=O)O` [AMPICILLIN], the half-inhibitory concentration (IC50) in data set [19] came to 1.46 µg/mL (≈ 4.18 µM); in data set [20], 4.36 µg/mL (≈ 12.5 µM); in [21] it was 1 µg/mL (≈ 2.86 µM); in data set [22] it was 10.3 µg/mL (≈ 29.5 µM). Besides, the MIC came out at 0.41 µg/mL (≈ 1.17 µM) in [19], 2.83 µg/mL (≈ 8.1 µM) in data set [20], 0.12 µg/mL (≈ 0.343 µM) in data set [21] and 5.89 µg/mL (≈ 16.9 µM) in [22].
